Test results published in US8110605B2, “Compound for inactivating viruses and bacteria and method of making same” (priority 2009, dated 2012).
Where two headings read alike, the source gives them in different places.

How the values were obtained:
[1] = system: Influenza virus H1N1 subtype (A/WSN/33); assay type: cell-based
[2] = system: H5N1 avian influenza virus (TW1209/03(H5N1)AIV); assay type: cell-based
[3] = system: H5N1 avian influenza virus (TW1209/03(H5N1)AIV); assay type: cell-based; remark: listed apart in the source
[4] = system: H5N2 avian influenza virus (TW1209/04(H5N2)AIV); assay type: cell-based
[5] = system: H5N2 avian influenza virus (TW1209/04(H5N2)AIV); assay type: cell-based; remark: listed apart in the source
[6] = system: avian influenza virus (AIV) subtype H5N2 (TW1209/04(H5N2)AIV) virions
[7] = system: Enterovirus type 71 (EV-71) virions; assay: AFM of Enterovirus type 71 virions treated with the compound; conditions: for maximum height of virus particles (AFM cursor profile): 5-10 minutes, native virion 75.23 nm; for calculated RMS height of treated particles: over 60 virus particles
[8] = system: Staphylococcus aureus strain (ATCC-25923); assay: Proliferation suppression of Staphylococcus aureus, MIC by broth dilution; assay type: cell-based; set-up: key to MIC of S. aureus: +: Proliferation of S. aureus,; −: Antibacterial effect of S. aureus; conditions: 10^4 CFU/mL
MDCK cells [9] = system: MDCK cells
MDCK cells [10] = system: MDCK cells; remark: listed apart in the source
MDCK cells [11] = system: MDCK cells; remark: listed apart in the source

O=C(O)C(CCCCCCCCCCS)C(=O)O [2-(10-mercaptodecyl)-propanedioic acid]
concentration protecting cells against infection by influenza virus H1N1 subtype (as low as) [1]: 30 ppm | CPE, H1N1 influenza virus treated with compound ([1]; 3 ppm): + | CPE, H1N1 influenza virus treated with compound ([1]; 30 ppm): − | CPE, H1N1 influenza virus treated with compound ([1]; 100 ppm): − | CPE, H1N1 influenza virus treated with compound ([1]; 300 ppm): − | CPE, H1N1 influenza virus treated with compound ([1]; 1,000 ppm): CTX | CPE, H1N1 influenza virus treated with compound ([1]; 3,000 ppm): CTX | concentration protecting cells against H5N1 influenza virus infection [2]: above 1,000 ppm | CPE, H5N1 avian influenza virus treated with compound ([2]; 3 ppm): + | CPE, H5N1 avian influenza virus treated with compound ([2]; 10 ppm): + | CPE, H5N1 avian influenza virus treated with compound ([2]; 30 ppm): + | CPE, H5N1 avian influenza virus treated with compound ([2]; 100 ppm): − | CPE, H5N1 avian influenza virus treated with compound ([2]; 300 ppm): − | CPE, H5N1 avian influenza virus treated with compound ([2]; 1,000 ppm): CTX | CPE, H5N1 avian influenza virus treated with compound ([2]; 3,000 ppm): CTX | concentration protecting RBC cells to sustain no agglutination (HA testing, H5N1) [3]: above 1,000 ppm | HA, H5N1 avian influenza virus treated with compound ([3]; 3 ppm): + | HA, H5N1 avian influenza virus treated with compound ([3]; 10 ppm): + | HA, H5N1 avian influenza virus treated with compound ([3]; 30 ppm): + | HA, H5N1 avian influenza virus treated with compound ([3]; 100 ppm): − | HA, H5N1 avian influenza virus treated with compound ([3]; 300 ppm): − | HA, H5N1 avian influenza virus treated with compound ([3]; 1,000 ppm): CTX | HA, H5N1 avian influenza virus treated with compound ([3]; 3,000 ppm): CTX | concentration protecting cells against H5N2 influenza virus infection [4]: above 1,000 ppm | CPE, H5N2 avian influenza virus treated with compound ([4]; 3 ppm): + | CPE, H5N2 avian influenza virus treated with compound ([4]; 10 ppm): + | CPE, H5N2 avian influenza virus treated with compound ([4]; 30 ppm): + | CPE, H5N2 avian influenza virus treated with compound ([4]; 100 ppm): − | CPE, H5N2 avian influenza virus treated with compound ([4]; 300 ppm): − | CPE, H5N2 avian influenza virus treated with compound ([4]; 1,000 ppm): CTX | CPE, H5N2 avian influenza virus treated with compound ([4]; 3,000 ppm): CTX | concentration protecting RBC cells to sustain no agglutination (HA testing, H5N2) [5]: above 1,000 ppm | HA, H5N2 avian influenza virus treated with compound ([5]; 3 ppm): + | HA, H5N2 avian influenza virus treated with compound ([5]; 10 ppm): + | HA, H5N2 avian influenza virus treated with compound ([5]; 30 ppm): + | HA, H5N2 avian influenza virus treated with compound ([5]; 100 ppm): − | HA, H5N2 avian influenza virus treated with compound ([5]; 300 ppm): − | HA, H5N2 avian influenza virus treated with compound ([5]; 1,000 ppm): CTX | HA, H5N2 avian influenza virus treated with compound ([5]; 3,000 ppm): CTX | viral morphology by AFM [6]: broken down and flattened | calculated RMS height of treated particles ([6]; 100 ppm): 14.29±0.87 nm | calculated RMS height of treated particles ([6]; 1,000 ppm): 5.62±0.53 nm | viral morphology by AFM ([7]; 30 and 1,000 ppm, FIGS. 5B and 5C): broken down and flattened | maximum height of virus particles (AFM cursor profile) ([7]; 30 ppm, FIG. 5B′): ~10.35 nm | calculated RMS height of treated particles ([7]; 30 ppm): 10.49±0.52 nm | maximum height of virus particles (AFM cursor profile) ([7]; 1,000 ppm, FIG. 5C′): ~8.41 nm | calculated RMS height of treated particles ([7]; 1,000 ppm): 8.35±0.63 nm | MIC ([8]; Staphylococcus aureus, ATCC25923, broth dilution method, read-out: final concentration suppressing proliferation of S. aureus (MIC)): 20 µg/mL | MIC of S. aureus ([8]; final concentration 5 ppm): + | MIC of S. aureus ([8]; final concentration 10 ppm): + | MIC of S. aureus ([8]; final concentration 20 ppm): − | MIC of S. aureus ([8]; final concentration 50 ppm): − | MIC of S. aureus ([8]; final concentration 100 ppm): − | MIC of S. aureus ([8]; final concentration 200 ppm): − | CPE, compound only (MDCK cells [9]; 3 ppm): − | CPE, compound only (MDCK cells [9]; 10 ppm): − | CPE, compound only (MDCK cells [9]; 30 ppm): − | CPE, compound only (MDCK cells [9]; 100 ppm): − | CPE, compound only (MDCK cells [9]; 300 ppm): − | CPE, compound only (MDCK cells [9]; 1,000 ppm): CTX | CPE, compound only (MDCK cells [9]; 3,000 ppm): CTX | CPE, compound only (MDCX cells; 3 ppm): − | CPE, compound only (MDCX cells; 10 ppm): − | CPE, compound only (MDCX cells; 30 ppm): − | CPE, compound only (MDCX cells; 100 ppm): − | CPE, compound only (MDCX cells; 300 ppm): − | CPE, compound only (MDCX cells; 1,000 ppm): CTX | CPE, compound only (MDCX cells; 3,000 ppm): CTX | concentration at which cytotoxicity occurred (MDCX cells; dog): exceeding 1,000 ppm | concentration causing no cytotoxicity (MDCX cells; dog): less than 300 ppm | CPE, compound only (MDCK cells [10]; 3 ppm): − | CPE, compound only (MDCK cells [10]; 10 ppm): − | CPE, compound only (MDCK cells [10]; 30 ppm): − | CPE, compound only (MDCK cells [10]; 100 ppm): − | CPE, compound only (MDCK cells [10]; 300 ppm): − | CPE, compound only (MDCK cells [10]; 1,000 ppm): CTX | CPE, compound only (MDCK cells [10]; 3,000 ppm): CTX | CPE, compound only (MDCK cells [11]; 3 ppm): − | CPE, compound only (MDCK cells [11]; 10 ppm): − | CPE, compound only (MDCK cells [11]; 30 ppm): − | CPE, compound only (MDCK cells [11]; 100 ppm): − | CPE, compound only (MDCK cells [11]; 300 ppm): − | CPE, compound only (MDCK cells [11]; 1,000 ppm): CTX | CPE, compound only (MDCK cells [11]; 3,000 ppm): CTX
